Measurements published in article PMC10537604, “Development and Assessment of 1,5–Diarylpyrazole/Oxime Hybrids Targeting EGFR and JNK–2 as Antiproliferative Agents: A Comprehensive Study through Synthesis, Molecular Docking, and Evaluation” (Molecules, 2023).

What was measured:
[1] = test system: human colorectal adenocarcinoma cell line DLD-1; assay: WST-8 antiproliferative assay, DLD-1; type: cell-based; conditions: WST-8 assay, six concentrations 1-100 µM
[2] = test system: human hepatocellular carcinoma cell line HepG2; assay: WST-8 antiproliferative assay, HepG2; type: cell-based; conditions: WST-8 assay, six concentrations 1-100 µM
[3] = test system: human pancreatic cancer cell line SUIT-2; assay: WST-8 antiproliferative assay, SUIT-2; type: cell-based; conditions: WST-8 assay, six concentrations 1-100 µM
JNK-2 = biological target: T1, JNK-2 (Homo sapiens, UniProt P45984); assay: JNK-2 inhibitory assay (SimpleStep ELISA, pT183/Y185); type: biochemical; conditions: read-out: IC50 (µM) against JNK-2
T1 construct: HEK293 only for the control lysate
T1 sequence (P45984 whole entry): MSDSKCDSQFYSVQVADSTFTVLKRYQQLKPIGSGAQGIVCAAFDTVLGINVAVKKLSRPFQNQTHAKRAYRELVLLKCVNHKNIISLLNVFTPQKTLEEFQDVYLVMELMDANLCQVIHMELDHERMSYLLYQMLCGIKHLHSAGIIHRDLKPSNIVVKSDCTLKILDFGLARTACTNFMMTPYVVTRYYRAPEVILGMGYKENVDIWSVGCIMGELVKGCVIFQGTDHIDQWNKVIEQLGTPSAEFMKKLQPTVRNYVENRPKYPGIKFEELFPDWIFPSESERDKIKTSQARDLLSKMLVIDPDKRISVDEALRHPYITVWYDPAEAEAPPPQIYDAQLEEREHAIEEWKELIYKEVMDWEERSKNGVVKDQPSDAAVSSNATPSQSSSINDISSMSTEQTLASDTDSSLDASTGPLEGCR
Experimental: The SimpleStep ELISA employs an affinity tag-labelled capture antibody and a reporter attached detector antibody to immunocapture the sample analyte in solution. This complete complex (capture antibody/analyte/detector antibody) is then immobilized via immunoaffinity of an anti-tag antibody coating the well. To perform the assay, samples or controls are added to the wells, followed by the antibody cocktail. After incubation, the wells are washed to remove unbound material. TMB substrate is added and during incubation is catalyzed by HRP, generating blue coloration. This reaction is then stopped by the addition of stop solution, completing any color change from blue to yellow. The signal is generated proportionally to the amount of bound analyte and the intensity is measured at 450 nm. Optionally, instead of the endpoint reading, the development of TMB can be recorded kinetically at 600 nm. An antibody cocktail can be prepared by combining an appropriate volume of the capture and detector antibodies immediately prior to assay. To make 3 mL of the antibody cocktail, combine 1.5 mL of capture antibody with 1.5 mL of detector antibody. Mix thoroughly and gently. Control lysate can be prepared from HEK293 cells, cultured in 10% FBS containing medium, then treated with 1 μg/mL anisomycin. After preparing all the reagents, samples, and control as instructed and following the previously published procedures [74, 75], add 50 µL of sample or control to the well, add 50 µL of the antibody cocktail, then incubate at room temperature for 1 h on a plate shaker set to 400 rpm, aspirate and wash each well three times with 350 μL with wash buffer, add 100 μL TMB substrate to each well and incubate for 15 min, then add 100 μL stop solution and measure the absorbance at 450 nm.

Hela cell line = assay: Cell cycle analysis, PI staining, flow cytometry; type: cell-based, human; conditions: for cell cycle arrest phase: Hela, PI staining
Experimental: This analysis was applied to investigate the effects of tested compounds on cell cycle distribution and on cell-death associated DNA fragmentation. The Hela cell line was analyzed flow cytometrically after propidium iodide (PI) staining, following the treatment of compounds 8g and 8i.
The supernatant was transferred to falcon tube for each plate and each well was washed twice with 3 mL PBS, Trypsin 1 mL was added, and plates were incubated for 3 to 5 min at 37 degrees, then 3 mL of the medium was added to separate cells, cells were centrifuged for 5 min, and supernatant was decanted. Then, it was washed again with 3 mL PBS, and 10 mL of medium was added. Cells were immediately fixed in ice cold 70% ethanol overnight at −20 °C. On the day of the analysis, cells were washed ×3 with PBS and re-suspended in propidium iodide (PI) for 15 min at room temperature, protected from light. Cell-cycle analysis was performed using flowcytometric analysis (BD FACS melody) and data obtained from cell cycle distribution was analyzed using FSC-W (Watson model) to estimate the percentage of cells in G1, S, and G2.

Hela cells = assay: Apoptosis assay, annexin V/PI flow cytometry; type: cell-based, human; conditions: concentration double the IC50, 24 h
From the text: For further investigation of the anticancer activity of compounds 8g and 8i, studies of apoptotic changes after treatment of Hela cells with these inhibitors were examined using fluorescent microscope and flowcytometry. Moreover, to discriminate between apoptosis and necrosis after the treatment of Hela cell with two inhibitors 8g and 8i at different concentrations, a fluorescent microscope was used to distinguish between apoptosis and necrosis based on their characteristic difference in morphology using annexin V and PI [52]. […] This was exposed in the cell membrane of the Hela cells after treatment with two inhibitors due to plasma membrane sprouting and chromatin concentration. The prolonged incubation of Hela cells with two inhibitors directed cells to necrosis, which was marked in red because of the PI staining of necrotic cells as a result of losing their dye-excluding ability owing to a loss of plasma membrane integrity and the dissolution of nuclear chromatin [53] (Figure S1).
Then, 200 µL of medium was added to separate cells, cells were centrifuged for 5 min, and supernatant was decanted. Then, it was washed twice with 100 µL PBS and 200 µL of buffer, 5 µL of PI& Annexin, and 200 µL of PBS was added for the test compounds. For control, 400 µL of PBS was added. […]

[4] = WST-8 cytotoxicity towards normal cell line PC12; type: cell-based, rat; conditions: rat, PC12 cells; WST-8 assay, six concentrations 1-100 μM; read-out: CC50 against PC12 cell line
Experimental: The evaluation of normal cell viability is fundamental in analyzing the efficacy of target compounds and is often used in conjunction with cytotoxicity tests to help understand how target compound toxicity affects normal cell health. […] A 100 μL aliquot of cells (10,000 cells/mL) was added to a 96 well plate and incubated for 24 h at 37 °C in a humidified incubator containing 5% CO2 in the air. […] Then, a 10 μL WST-8 solution (mixture of WST-8 and 1-methoxy PMS) was added to each well and the incubation continued for 3 h. The visible absorbance at 450 nm and 630 nm as the reference wavelength of each well was quantified using an MTP-310 absorbance microplate reader. Daunorubicin was used as a positive control. The results of cytotoxicity were recorded as growth inhibition percentages and as IC50 values.

| SMILES | IC50 [1] [µM] | IC50 [2] [µM] | IC50 [3] [µM] | IC50 (JNK-2) [µM] | other results |
| --- | --- | --- | --- | --- | --- |
| COc1cc(/C(C)=N/O)ccc1OC(=O)c1cc(-c2ccc(C)cc2)n(-c2ccccc2)n1 [Compound 8b, (E)–4–(1–(Hydroxyimino)ethyl)–2–methoxyphenyl 1–phenyl–5–p–tolyl–1H–pyrazole–3–carboxylate] | 10 | 35.7 | 27 |  |  |
| COc1cc(/C(C)=N/O)ccc1OC(=O)c1cc(-c2ccc(Cl)cc2)n(-c2ccccc2)n1 [Compound 8d, (E)–4–(1–(Hydroxyimino)ethyl)–2–methoxyphenyl 5–(4–chlorophenyl)–1–phenyl–1H–pyrazole–3–carboxylate] |  |  |  | 49 |  |
| COc1ccc(-c2cc(C(=O)Oc3ccc(/C(C)=N/O)cc3OC)nn2-c2ccccc2)cc1OC [Compound 8e, (E)–4–(1–(Hydroxyimino)ethyl)–2–methoxyphenyl 5–(3,4–dimethoxy phenyl)–1–phenyl–1H–pyrazole–3–carboxylate] |  | 4.7 |  |  |  |
| COc1cc(/C(C)=N/O)ccc1OC(=O)c1cc(-c2ccccc2)n(-c2ccc(S(N)(=O)=O)cc2)n1 [Compound 8f, (E)–4–(1–(Hydroxyimino)ethyl)–2–methoxyphenyl 5–phenyl–1–(4–sulfamoyl phenyl)–1H–pyrazole–3–carboxylate] |  | 22.3 |  |  |  |
| COc1cc(/C(C)=N/O)ccc1OC(=O)c1cc(-c2ccc(C)cc2)n(-c2ccc(S(N)(=O)=O)cc2)n1 [Compound 8g, (E)–4–(1–(Hydroxyimino)ethyl)–2–methoxyphenyl 1–(4–sulfamoylphenyl)–5–p–tolyl–1H–pyrazole–3–carboxylate] | 32.3 | 12.3 | 19 | > 200 | percentage of Hela cells at G2 phase (Hela cell line; 48 h): 20.5%; cell cycle arrest phase (Hela cell line): G2/M arrest; percentage of apoptotic Hela cells (Hela cells): 34.7%; CC50 at 24 h [4]: 16.1 µM |
| COc1ccc(-c2cc(C(=O)Oc3ccc(/C(C)=N/O)cc3OC)nn2-c2ccc(S(N)(=O)=O)cc2)cc1 [Compound 8h, (E)–4–(1–(Hydroxyimino)ethyl)–2–methoxyphenyl 5–(4–methoxyphenyl)–1–(4–sulfamoyl phenyl)–1H–pyrazole–3–carboxylate] |  |  | 26 |  |  |
| COc1cc(/C(C)=N/O)ccc1OC(=O)c1cc(-c2ccc(Cl)cc2)n(-c2ccc(S(N)(=O)=O)cc2)n1 [Compound 8i, (E)–4–(1–(Hydroxyimino)ethyl)–2–methoxyphenyl 5–(4–chlorophenyl)–1–(4–sulfamoyl phenyl)–1H–pyrazole–3–carboxylate] |  |  | 62 | 1 | cell cycle arrest phase (Hela cell line): combined S phase and G2 phase arrest; percentage of Hela cells at G2 phase (Hela cell line; IC50 concentration, 24 h): 18.2%; percentage of Hela cells at S phase (Hela cell line; IC50 concentration, 24 h): 59.4%; percentage of apoptotic Hela cells (Hela cells): 17.3%; CC50 at 24 h [4]: > 100 µM |

Second part, led by results:

| IC50 [1] [µM] | IC50 [2] [µM] | IC50 [3] [µM] | IC50 (JNK-2) [µM] | SMILES | other results |
| --- | --- | --- | --- | --- | --- |
| 26 |  |  |  | C/C(=N\O)c1ccc(NC(=O)c2cc(-c3ccccc3)n(-c3ccc(S(N)(=O)=O)cc3)n2)cc1 [Compound 10a, (E)–N–(4–(1–(Hydroxyimino)ethyl)phenyl)–5–phenyl–1–(4–sulfamoylphenyl)–1H–pyrazole–3–carboxamide] |  |
| 36 |  |  |  | COc1ccc(-c2cc(C(=O)Nc3ccc(/C(C)=N/O)cc3)nn2-c2ccc(S(N)(=O)=O)cc2)cc1 [Compound 10b, (E)–N–(4–(1–(Hydroxyimino)ethyl)phenyl)–5–(4–methoxyphenyl)–1–(4–sulfamoylphenyl)–1H–pyrazole–3–carboxamide] |  |
|  |  | 13 |  | COc1ccc(-c2cc(C(=O)Nc3ccc(/C(C)=N/O)cc3)nn2-c2ccc(S(N)(=O)=O)cc2)cc1OC [Compound 10c, (E)–5–(3,4–Dimethoxyphenyl)–N–(4–(1–(hydroxyimino)ethyl)phenyl)–1–(4–sulfamoyl phenyl)–1H–pyrazole–3–carboxamide] |  |
